Assay results reported in patent US20160137639A1, “TRIAZOLE-ISOXAZOLE COMPOUND AND MEDICAL USE THEREOF” (JAPAN TOBACCO INC., priority 2012, published 2016).
Like-named read-outs stand apart in the source and are kept apart here.

Key:
human RORγ = target: T1, human RORγ (Homo sapiens, UniProt P51449); assay: Luciferase reporter gene assay of inhibitory effect against RORγ transcriptional activity (GAL4-hRORγ plasmid in CHO cells); type: cell-based
T1 construct: human, NM_005060.3 and from Ser253 to Lys518; expressed in transfected cells; host or cells: CHO cells (transient co-transfection with pG5-Luc reporter)
T1 sequence (P51449 253-518): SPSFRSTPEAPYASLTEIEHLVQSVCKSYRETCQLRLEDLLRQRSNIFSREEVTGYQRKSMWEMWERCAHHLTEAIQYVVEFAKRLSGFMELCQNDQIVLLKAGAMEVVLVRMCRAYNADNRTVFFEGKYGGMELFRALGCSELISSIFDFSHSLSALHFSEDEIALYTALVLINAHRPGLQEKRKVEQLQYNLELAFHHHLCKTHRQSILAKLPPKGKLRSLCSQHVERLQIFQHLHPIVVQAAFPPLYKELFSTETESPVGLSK

mouse RORγ = target: T2, mouse RORγ (Mus musculus, UniProt P51450); assay: Luciferase reporter gene assay of inhibitory effect against RORγ transcriptional activity (GAL4-mRORγ plasmid in CHO cells); type: cell-based
T2 construct: mouse, NM_011281.2 and from Ile251 to Lys516; expressed in transfected cells; host or cells: CHO cells (transient co-transfection with pG5-Luc reporter)
T2 sequence (P51450 251-516): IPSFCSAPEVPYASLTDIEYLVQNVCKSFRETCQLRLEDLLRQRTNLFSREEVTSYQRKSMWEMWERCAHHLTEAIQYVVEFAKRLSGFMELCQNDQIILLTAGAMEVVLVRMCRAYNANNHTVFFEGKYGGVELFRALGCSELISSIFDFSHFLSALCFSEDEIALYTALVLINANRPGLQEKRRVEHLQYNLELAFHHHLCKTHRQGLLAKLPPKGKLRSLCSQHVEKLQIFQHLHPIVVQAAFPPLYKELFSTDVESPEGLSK
Summary of the method: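 CHO cells transiently co-transfected with GAL4-mouse RORγ LBD (Ile251–Lys516) and GAL4-dependent luciferase reporter; eight compound concentrations, 0.1% DMSO, 2 days at 37 °C. Luminescence as %-of-vehicle control; EC50 by curve fit, cytotoxic concentrations excluded.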

Row | Structure (SMILES) | EC50 (human RORγ; read-out: LUC EC50 (μM) hRORg) [µM] | EC50 (mouse RORγ; read-out: LUC EC50 (μM) mRORg) [µM] | other results
1 | O=C(O)CC[C@@H](CC(=O)Nc1ccc(Cl)cc1F)c1noc(-c2cc(C3CCCC3)on2)c1C1CC1 [Example E-59] | < 3 | < 3 | 
2 | O=C(O)CC[C@@H](CC(=O)Nc1ccc(F)cc1Cl)c1noc(-c2cc(C3CCCC3)on2)c1C1CC1 [Example E-60] | < 3 | < 3 | 
3 | CC(C)C(F)(F)c1cc(-c2onc([C@@H](CCC(=O)O)CC(=O)Nc3ccc(F)cc3Cl)c2C2CC2)no1 [Example E-61] | < 3 | < 3 | 
4 | CC(C)(C)C(F)(F)c1cc(-c2onc([C@@H](CCC(=O)O)CC(=O)Nc3ccc(Cl)cc3F)c2C(F)F)no1 [Example E-62, Sodium (S)-5-(4-chloro-2-fluoro-phenylcarbamoyl)-4-[5-(1,1-difluoro-2,2-dimethylpropyl)-4′-difluoromethyl-[3,5′]biisoxazolyl-3′-yl]-pentanoate] | < 3 | < 3 | 
5 | CC1(Cc2cc(-c3onc([C@@H](CCC(=O)O)CC(=O)Nc4ccc(F)cc4Cl)c3C3CC3)no2)CC1 [Example E-63] | < 3 | < 3 | 
6 | CC1(Cc2cc(-c3onc([C@@H](CCC(=O)O)CC(=O)Nc4ccc(Cl)cc4F)c3C3CC3)no2)CC1 [Example E-64] | < 3 | < 3 | 
7 | Cc1ccc(NC(=O)C[C@H](CCC(=O)O)c2noc(-c3cc(CC(C)(C)C)on3)c2C2CC2)c(F)c1 [Example E-65] | < 3 | < 3 | 
8 | CC(F)(F)c1c([C@@H](CCC(=O)O)CC(=O)Nc2ccc(Cl)cc2F)noc1-c1cc(C(F)(F)C(C)(C)C)on1 [Example E-66] | < 3 | < 3 | 
9 | CC1(C(F)(F)c2cc(-c3onc([C@@H](CCC(=O)O)CC(=O)Nc4ccc(Cl)cc4F)c3C3CC3)no2)CC1 [Example E-67] | < 3 | < 3 | 
10 | CC(C)(C)c1cc(-c2onc([C@@H](CCC(=O)O)CC(=O)Nc3ccc(Cl)cc3F)c2C2CC2)no1 [Example E-69] | < 3 | < 3 | 
11 | O=C(O)CC[C@@H](CC(=O)Nc1ccc(Cl)cc1Cl)c1noc(-c2cc(C3CCCC3)on2)c1C1CC1 [Example E-70] | < 3 | < 3 | 
12 | CC1(c2cc(-c3onc([C@@H](CCC(=O)O)CC(=O)Nc4ccc(Cl)cc4F)c3C3CC3)no2)CCCC1 [Example E-71] | < 3 | < 3 | 
13 | CC1(c2cc(-c3onc([C@@H](CCC(=O)O)CC(=O)Nc4ccc(F)cc4Cl)c3C3CC3)no2)CCCC1 [Example E-72] | < 3 | < 3 | 
14 | Cc1ccc(NC(=O)C[C@H](CCC(=O)O)c2noc(-c3cc(C(F)(F)C4CC4)on3)c2C2CC2)c(Cl)c1 [Example E-73] | < 3 | < 3 | 
15 | CC(C)(C)Cc1cc(-c2noc([C@@H](CCC(=O)O)CC(=O)Nc3ccc(Cl)cc3Cl)c2C2CC2)no1 [Example E-74] | < 3 | < 3 | 
16 | Cc1ccc(NC(=O)C[C@H](CCC(=O)O)c2onc(-c3cc(CC(C)(C)C)on3)c2C2CC2)c(Cl)c1 [Example E-75] | < 3 | < 3 | 
17 | CC(C)(C)Cc1cc(-c2noc([C@@H](CCC(=O)O)CC(=O)Nc3ccc(Cl)cc3F)c2C2CC2)no1 [Example E-76] | < 3 | < 3 | 
18 | CC(C)(C)C(F)(F)c1cc(-c2onc([C@@H](CCC(=O)O)CC(=O)Nc3ccc(Cl)cc3F)c2C2CC2)no1 [Example E-77] |  |  | EC50 (human RORγ; read-out: LUC EC50 hRORg): < 3 µM; EC50 (mouse RORγ; read-out: LUC EC50 mRORg): < 3 µM
19 | CC(C)(C)Cc1cc(-c2onc([C@@H](CCC(=O)O)CC(=O)Nc3ccc(Cl)cc3Cl)c2C2CC2)no1 [Example E-78] |  |  | EC50 (human RORγ; read-out: LUC EC50 hRORg): < 3 µM; EC50 (mouse RORγ; read-out: LUC EC50 mRORg): < 3 µM
20 | CC(C)(C)Cc1cc(-c2onc([C@H](CCC(=O)O)CC(=O)Nc3ccc(Cl)cc3Cl)c2C2CC2)no1 [Example E-79] |  |  | EC50 (human RORγ; read-out: LUC EC50 hRORg): < 3 µM; EC50 (mouse RORγ; read-out: LUC EC50 mRORg): < 3 µM
21 | CC(C)(C)C(F)(F)c1cc(-c2onc([C@H](CCC(=O)O)CC(=O)Nc3ccc(Cl)cc3F)c2C2CC2)no1 [Example E-80] |  |  | EC50 (human RORγ; read-out: LUC EC50 hRORg): < 3 µM; EC50 (mouse RORγ; read-out: LUC EC50 mRORg): < 3 µM
22 | CCn1c(CCC(=O)Nc2cccc3ccccc23)nnc1C1Cc2ccccc2C1 [Example F-1] | < 3 | < 3 | 
23 | CCn1c(C2Cc3ccccc3C2)nnc1[C@H](C)CC(=O)Nc1cccc2ccccc12 [Example F-2] | < 3 | < 3 | 

Row | Structure (SMILES) | EC50 (human RORγ; read-out: LUC EC50 (μM) hRORg) [µM] | EC50 (mouse RORγ; read-out: LUC EC50 (μM) mRORg) [µM] | other results
24 | CCn1c(CCC(=O)Nc2cccc(Cl)c2C)nnc1C1Cc2ccccc2C1 [Example F-3] | > 3 | < 3 | 
25 | O=C(CCc1nnc(C2Cc3ccccc3C2)n1C1CC1)Nc1cccc2ccccc12 [Example F-4] | < 3 | < 3 | 
26 | CCCn1c(CCC(=O)Nc2cccc3ccccc23)nnc1C1Cc2ccccc2C1 [Example F-5] | > 3 | > 3 | 
27 | CC(C)n1c(CCC(=O)Nc2cccc3ccccc23)nnc1C1Cc2ccccc2C1 [Example F-6] | > 3 | > 3 | 
28 | CCn1c(CCC(=O)Nc2cccc3c2CCCC3)nnc1C1Cc2ccccc2C1 [Example F-7] | > 3 | < 3 | 
29 | Cn1c(CCC(=O)Nc2cccc3ccccc23)nnc1C1Cc2ccccc2C1 [Example F-8] | > 3 | < 3 | 
30 | O=C(CCc1nnc(C2Cc3ccccc3C2)[nH]1)Nc1cccc2ccccc12 [Example F-9] | > 3 | > 3 | 
31 | CCn1c(CCC(=O)NC2CCCc3ccccc32)nnc1C1Cc2ccccc2C1 (stereo not drawn) [Example F-10] |  |  | EC50 (human RORγ; LUC EC50 (μM) hRORg): > 3 µM; EC50 (mouse RORγ; LUC EC50 (μM) mRORg): > 3 µM
32 | CC(C)Cn1c(CCC(=O)Nc2cccc3ccccc23)nnc1C1Cc2ccccc2C1 [Example F-11] |  |  | EC50 (human RORγ; LUC EC50 (μM) hRORg): > 3 µM; EC50 (mouse RORγ; LUC EC50 (μM) mRORg): > 3 µM
33 | CCn1c(CCC(=O)Nc2cccc3ccccc23)nnc1CCc1ccccc1 [Example F-12] | < 3 | < 3 | 
34 | CCn1c(CCC(=O)Nc2cccc3ccccc23)nnc1CCC1CCCCC1 [Example F-13] | < 3 | < 3 | 
35 | CCc1c(CCC(=O)Nc2cccc3ccccc23)noc1C1Cc2ccccc2C1 [Example F-14] | < 3 | < 3 | 
36 | CCn1c(CCC(=O)Nc2cc(C)cc(C)c2)nnc1C1Cc2ccccc2C1 [Example F-16] | > 3 | < 3 | 
37 | CCn1c(CCC(=O)Nc2cccc3ccccc23)nnc1CC1CCCCC1 [Example F-17] | > 3 | < 3 | 
38 | CCn1c(CCC(=O)NCc2cccc3ccccc23)nnc1C1Cc2ccccc2C1 [Example F-18] | < 3 | < 3 | 
39 | CCn1c(CCC(=O)Nc2cccc3ccccc23)nnc1CCC(C)C [Example F-19] | > 3 | < 3 | 
40 | CCn1c(CCC(=O)Nc2cccc3ccccc23)nnc1C1CCCCC1 [Example F-20] | > 3 | > 3 | 
41 | CCn1c(CCC(=O)NC2CCCCC2)nnc1C1Cc2ccccc2C1 [Example F-21] | > 3 | > 3 | 
42 | CCn1c(CCC(=O)NCc2ccccc2)nnc1C1Cc2ccccc2C1 [Example F-22] | > 3 | > 3 | 
43 | CCn1c(CCC(=O)Nc2ccccc2)nnc1C1Cc2ccccc2C1 [Example F-23] | > 3 | > 3 | 
44 | CCn1c(CCC(=O)NC23CC4CC(CC(C4)C2)C3)nnc1C1Cc2ccccc2C1 [Example F-24] | > 3 | > 3 | 
45 | CCn1c(CCC(=O)Nc2cccc3ccccc23)nnc1CCC(C)(C)C [Example F-25] | > 3 | < 3 | 
